# According to US7112564B2, “Biodegradable glucosaminemuramyl peptides for apoptosis modulation” (Zylacta Corporation, priority 2003, dated 2006):
# Tested on: A549 cells (human lung cancer)
# Assay: Inhibition of TNF alpha cytotoxicity (LDH release into culture supernatant)
# Assay type: cell-based
# Conditions: ingredient at 1 ug/ml, FIG. 2
# Method: A549 cells (human lung cancer) were seeded in six-well plates, and after 24 h (70% confluence) treated with 25 ug/ml cycloheximide (CHX) and either 100 U/ml human TNF (Beoringer) or an agonist monoclonal antibody to FAS (Panerva) in concentration 200 ng/ml. GMDP, and GMHP were added just prior to the cytokine in the concentrations discussed in the figure legends. Twenty hours after the treatment 20 ul of the cultured supernatant was removed and tested for the LDH activity in 96 well plates in triplicate. Samples were assayed on an EL340 Microplate reader (Biotec Instruments, Inc) at 490-nm wavelength.
# The purpose of this experiment was to show the synergistic effect of NAG and D-glutamine on LDH release. Technically the experiment was similar to example 1. Both ingredients were added in concentration 1 ug/ml. […] Almost 50% inhibition of LDH activity was noticed for NAG+D-glutamine composition. […] The glucosamine muramyl hexapeptide has 3 D-amino acids while GMDP has only one D-isoglutamine.
smiles,measurement,value
NC(=O)CC[C@H](N)C(=O)O [L-glutamine],protection of cells from TNF alpha cytotoxicity (LDH release),does not protect cells from TNF alpha cytotoxicity
